Legend:
human RBP4 = human RBP4 (Homo sapiens (Human), UniProt P02753); assay: Binding assay by Retinol-RBP4-TTR ELISA (human-type ELISA); details: inhibition of binding of RBP4 with retinol and TTR; retinol 0.5 μM; read-out: human RBP4 binding inhibitory activity (IC50 nM)
Protocol: The action of the compound of the present invention to inhibit binding of RBP4 and retinol and TTR was evaluated using the Retinol-RBP4-TTR ELISA (human-type ELISA) system shown below.
Binding Assay by Retinol-RBP4-TTR ELISA
This ELISA system detects a complex of retinol, RBP4 and TTR by Streptoavidin-Biotin reaction.
His-tagged human RBP4 used was prepared in the above-mentioned 1C.
Biotinylate human TTR used was prepared in the above-mentioned 1E.
Streptavidin (20 μl) (10 μg/ml Streptavidin type II (Wako Pure Chemical Industries, Ltd.), 10 mM Tris-HCl (pH 7.5), 10 mM NaCl) was added to a 384 well black maxisorp plate (Nunc), and the plate was subjected to centrifugation (1000 rpm, 1 min) and coated overnight at 4° C. The plate was washed twice with PBST (PBS, 0.05% Tween 20, 100 μl/well) and blocked with 25% Block Ace (Snow Brand Milk Products Co., Ltd., PBS, 100 μl/well). The plate was subjected to centrifugation (1000 rpm, 1 min) and incubated at room temperature for 4 hr or overnight at 4° C. The plate was washed twice with PEST (PBS, 0.05% Tween 20, 100 μl/well), and biotinylated human TTR (stock solution concentration 1.3 mg/ml) diluted 1000-fold with PBST was added at 20 μl/well. The plate was subjected to centrifugation (1000 rpm, 1 min) and stood still at room temperature for 1.5 hr or overnight at 4° C. The plate was washed 3 times with PBST (100 μl/well), and His-tagged human RBP4 (stock solution concentration 0.96 mg/ml) diluted 4000-fold with a reaction buffer (50 mM Tris-HCl, 150 mM NaCl, 0.005% Tween 20, 1 mM DTT, 0.1% BSA) was added at 10 μl/well. The dilution series (8 doses from 10 mM, 200-fold concentration) of the compound was prepared with DMSO, and 1 μl of each was added to a reaction buffer (200 μl) containing retinol (0.5 μM) (Sigma-Aldrich Co.). A reaction buffer (200 μl) containing retinol and added with DMSO was used as a positive control, and reaction buffer (200 μl) free of retinol and added with DMSO was used as a negative control. Mixed solutions of retinol and the compound were added to the plate at 15 μl/well. The mixture was stirred in a platemixer subjected to centrifugation (1000 rpm, 1 min) and reacted at room temperature for 2 hr. A 35% Block Ace solution diluted with the reaction buffer was added at 10 μl/well, centrifuged (1000 rpm, 1 min) and reacted at room temperature for 30 min. The plate was washed 3 times with PBST (100 μl/well) and SuperSignal ELISA Femto Maximum Sensitivity Substrate reagent (PIERCE) was added at 30 μl/well, and the luminescence was measured by a platereader (Wallac).
The binding inhibitory rate of the compound was determined by 100×(test compound value-negative control value)/(positive control value-negative control value). The binding activity (IC50) was calculated from the binding inhibitory rate at each compound concentration using a graph drawing software, Prism (GraphPad Software Inc.).

Zucker fa/fa rat = assay: TG-lowering action using Zucker fa/fa rat (Charles River Laboratories Japan Inc.); format: in vivo; details: oral 30 mg/kg for 2 weeks
Protocol: An anti-diabetes action and a blood triglyceride (hereinafter TG)-lowering action of the compound of the present invention were evaluated using Zucker fa/fa rats.
Male 10-week-old Zucker fa/fa rats (Charles River Laboratories Japan Inc.) were bred in group on CE-2 solid food (CLEA Japan, Inc.) until 12-week-old for acclimation under conditions with free access to food. At 12-week-old, the rats were grouped based on the body weight, blood glucose level, glycated hemoglobin level, blood RBP4 level and blood triglyceride blood (hereinafter TG) (5 per group). Thereafter, the test compound (Example 12) was orally administered at a dose of 30 mg/kg (solvent: 0.5% methylcellulose solution (3 mL/kg)) for 2 weeks. The next day of the final administration of the compound, blood samples were collected from the tail vein, and plasma was separated. Using the collected plasma, (1) RBP4 concentration and (2) TG level were measured. (1) was quantified according to the protocol described in Experimental Example 2. (2) was measured using Hitachi fully automatic analyzer (Model 7070).
A 0.5% methylcellulose solution (5 mL/kg) was orally administered to the control group. […] The results are shown in the following in mean±standard deviation (n=5).

RBP4 = RBP4 (Mus musculus (Mouse), UniProt Q00724); assay: Blood RBP4 lowering action in C57BL/6J mouse (plasma RBP4 by ELISA); format: in vivo; details: mean±SD (n=5)
Protocol: A blood RBP4 lowering action of the compound of the present invention was evaluated using C57BL/6J mouse.
Male 7- to 15-week-old C57BL/6J mice (Charles River Laboratories Japan Inc.) were individually bred for acclimation for 4-6 days under conditions with free access to CE-2 solid food (CLEA Japan, Inc.), and grouped based on the body weight (5 per group). The next day of grouping, blood samples were collected from the orbital venous plexus, and plasma was separated (0 hr value). Thereafter, the test compounds (Examples 12, 143, 164, 189, 197, 207 and 215) were orally administered at a dose of 50 mg/kg (solvent: 0.5% methylcellulose solution (10 mL/kg)). At 4, 7 and 24 hr after administration of the compounds, blood samples were collected from the orbital venous plexus, and plasma was separated. A 0.5% methylcellulose solution (10 mL/kg) was orally administered to the control group.
The RBP4 level of the collected plasma was measured by ELISA. RBP4 was quantified by the following steps using a rabbit anti-mouse RBP4 polyclonal antibody (Hokudo Co., Ltd). A 96 well ELISA plate was coated with 50 μg/mL of the antibody (100 μL) and stood at 4° C. overnight. After blocking with BlockAce (DAINIPPON PHARMACEUTICAL CO., LTD.), mouse RBP4 or a sample (100 μL) was added and the plate was stood at room temperature for 2 hr. After washing with PBS-0.5% Tween 20, HRP-labeled anti-RBP4 antibody (prepared by labeling RBP4 polyclonal antibody (Hokudo Co., Ltd) with HRP (DOJINDO LABORATORIES)) was added by 100 μL, and the plate was stood at room temperature for 1 hr. After washing, TMB (Dako Cytomations) was added, and the mixture was stood at room temperature for 20 min to allow color development, and the reaction was quenched with 2N sulfuric acid. Thereafter, the absorbance at A450 nm was measured on a platereader. The amount of change from the initial value of each animal was determined as a relative value from the control group (% of initial/Control) at each time point. The results are shown in the following in mean±standard deviation (n=5).

CC(C)(C)c1ccccc1OC1CN(C(=O)CCC(=O)O)C1 [Example 12, 4-(3-(2-tert-butylphenoxy)azetidin-1-yl)-4-oxobutanoic acid]
IC50 (human RBP4): 210 nM | TG (result in words) (Zucker fa/fa rat; versus control): significant decrease | blood RBP4 concentration (result in words) (Zucker fa/fa rat; versus control): significant decrease | RBP4 (Zucker fa/fa rat; plasma, mean±SD (n=5)): 8.2 ± 1.1 µg/mL | TG (Zucker fa/fa rat; plasma, mean±SD (n=5)): 650.8 ± 130.6 mg/dL | RBP4 (% of initial/Control) 4 hr later (RBP4; 4 hr after single oral 50 mg/kg): 57.7 ± 3.6 % of initial/Control | RBP4 (% of initial/Control) 7 hr later (RBP4; 7 hr after single oral 50 mg/kg): 44.3 ± 2.0 % of initial/Control | RBP4 (% of initial/Control) 24 hr later (RBP4; 24 hr after single oral 50 mg/kg): 50.0 ± 3.4 % of initial/Control

From patent US8586571B2, “Heterocyclic compound” (Takeda Pharmaceutical Company Limited, priority 2007, dated 2013)
